Molecules are shown by their SMILES.

The series can be described thus: physchem. Conditions: 37 °C. The source says: However, there has been no report yet for an intraoral quickly disintegrating tablet containing a slightly soluble pharmaceutical agent having an improved solubility as such and for a method of manufacturing the tablet. One of the reasons therefor is that it is difficult for satisfying all of the requirements for improving the solubility of the slightly soluble pharmaceutical agent, for a quick disintegration in the mouth and for ensuring a good touch on the tongue upon disintegration. Many of the pharmaceutical ingredients acting as a cyclic GMP phosphodiesterase inhibitor are the compounds having a relatively low solubility and are within a category of the slightly soluble pharmaceutical agents.

With `COc1ccc(CNc2nnc(N3CCC(O)CC3)c3ccc(C#N)cc23)cc1Cl.Cl` [formula (IX), 4-(3-chloro-4-methoxybenzyl)amino-6-cyano-1-(4-hydroxypiperidino)phthalazine hydrochloride], the solubility (pH 1.2, simulated gastric fluid) was 130 µg/mL and the solubility (pH 6.8, aqueous buffer) worked out at 6.3 µg/mL.

The values are drawn from patent publication US6743443B1, “Tablets immediately disintegrating in the oral cavity” (Eisai Co., Ltd., priority 1998, dated 2004).
